Source: patent US10252977B2, “Halogen-substituted phenoxyphenylamidines and the use thereof as fungicides” (priority 2015, dated 2019)
Read-outs that look alike come from different tables or passages of the source.

Assays:
[1] = Log P by HPLC on reversed phase columns (EEC directive 79/831 Annex V.A8); format: physicochemical; settings: LC-UV
Protocol: Measurement of Log P values was performed according to EEC directive 79/831 Annex V.A8 by HPLC (High Performance Liquid Chromatography) on reversed phase columns with the following methods: • ^[a] Log P value is determined by measurement of LC-UV, in an acidic range, with 0.1% formic acid in water and acetonitrile as eluent (linear gradient from 10% acetonitrile to 95% acetonitrile). • [b] Log P value is determined by measurement of LC-UV, in a neutral range, with 0.001 molar ammonium acetate solution in water and acetonitrile as eluent (linear gradient from 10% acetonitrile to 95% acetonitrile). […] Lambda-max-values were determined using UV-spectra from 200 nm to 400 nm and the peak values of the chromatographic signals.

[2] = Hydrolysis stability test in homogeneous aqueous solution; format: physicochemical; settings: 50° C., 24 hours, first order degradation assumed
Protocol: The chemical stability towards hydrolysis of the phenylamidines described in the prior art is good but an improved stability may be an advantage during the preparation and formulation processes in a large scale. The improved stability towards hydrolysis was proven by a hydrolysis stability test as described below: To produce a suitable preparation of active compound for the hydrolysis stability test, a 1000 ppm stock solution (1 mg/mL) of active compound in acetonitrile is prepared. Three aliquots of 100 μL are pipetted into HPLC vials and diluted with 750 μL acetonitrile. In each vial 850 μL of the appropriate buffer solution (pH4, pH7 and pH9, CertiPUR, Fa. Merck) is added. The buffer containing HPLC vials are incubated in a heated sample tray at 50° C. for 24 hours. The amount A of the active compound is analyzed by HPLC (UV-peak areas at 210 nm) at eight points in time t: 0 min, 140 min, 350 min, 560 min, 770 min, 980 min, 1190 min, 1400 min. The half-life time (T1/2) of each active compound is calculated via linear regression by using the following equations (first order degradation assumed): In table III the results of the hydrolysis stability test are shown for the compounds (I-01), (I-02), (I-03), (I-04) and (I-05) at various pH-values. […] 337 known from WO2008/110278. […] This increased stability will be of advantage during the preparation and formulation processes in a large scale compared to known amidines. The data are to be seen merely by way of example and are not limiting for the purposes of the invention.

[3] = Photolysis stability test; format: physicochemical; settings: dried film in MTP, irradiated at 30° C. and 480 W/m^2, up to 24 h, first order degradation assumed
Protocol: The stability towards photolysis of the phenylamidines described in the prior art is good but an improved stability towards photolysis may be an advantage as it could offer a longer lasting efficacy when applied to plants by foliar application. The improved stability towards photolysis was proven by a […] stability test as described below:
To produce a suitable preparation of active compound for the photolysis stability test, a 1000 ppm stock solution (1 mg/mL) of active compound in acetonitrile is prepared. Aliquots of 25 μL of this stock solution are pipetted in three wells of a Bio-one microtiter plate (MTP) UVStar 96 (Fa. Greiner, Art. No. 655801). The MTP is dried overnight in the dark and then irradiated at 30° C. and 480 W/m^2 with a UV irradiation device SUNTEST XLS+ or SUNTEST CPS (Fa. Atlas). The amount A of the active compound is analyzed by HPLC (UV-peak areas at 210 nm) at five points in time t: 0 h, 2 h, 4 h, 6 h, 24 h by using the following method: 200 μL acetonitrile is added in the respective well of the MTP and the MTP is sealed with a Bio-one sealing foil, viewseal 80/140 mm (Fa. Greiner, Art. No. 676070). The MTPs are sonicated for 3 minutes and analysed by HPLC. The half-life time (T1/2) of each active compound is calculated via linear regression by using the following equations (first order degradation assumed): […]
In table IV the results of the photolysis stability test are shown for the compounds (I-01) and (I-02). […] This increased chemical stability towards photolysis will be of advantage as it will offer a longer lasting efficacy when applied to plants by foliar application compared to known amidines. The data are to be seen merely by way of example and are not limiting for the purposes of the invention.

soy bean plants = assay: Plant compatibility test using soy bean plants; format: in vivo; settings: soy bean young plants sprayed at 1000 ppm, evaluated 6 days after application; 0% no damages, 100% totally damaged
Protocol: Plant Compatibility Test Using Soy Bean Plants • Solvent: 24.5 parts by weight of acetone • 24.5 parts by weight of dimethylacetamide • Emulsifier: 1 part by weight of alkylaryl polyglycol ether To produce a suitable preparation of active compound, 1 part by weight of active compound is mixed with the stated amounts of solvent and emulsifier, and the concentrate is diluted with water to the desired concentration. Young plants are sprayed with the preparation of active compound at the stated application rate. The plants are then placed in a greenhouse at approximately 21° C. and a relative atmospheric humidity of approximately 80%. The test is evaluated 6 days after application and comprises plant damages like leaf deformation, chlorosis, necrosis, shoot damage or stunting. The results are summarized in table V. 0% means no damages are observed, while 100% means that the plants are totally damaged.

Phakopsora pachyrhizi = assay: In vivo preventive test on Phakopsora (soybeans); settings: 7 days after inoculation
Protocol: To produce a suitable preparation of active compound, 1 part by weight of active compound is mixed with the stated amounts of solvent and emulsifier, and the concentrate is diluted with water to the desired concentration. To test for preventive activity, young plants are sprayed with the preparation of active compound at the stated rate of application. After the spray coating has dried on, the plants are inoculated with an aqueous spore suspension of the causal agent of soybean rust (Phakopsora pachyrhizi) and stay for 24 h without light in an incubation cabinet at approximately 24° C. and a relative atmospheric humidity of 95%. The plants remain in the incubation cabinet at approximately 24° C. and a relative atmospheric humidity of approximately 80% and a day/night interval of 12 h.

Puccinia recondita = assay: In vivo preventive test on Puccinia recondita (brown rust on wheat); settings: 500 ppm of active ingredient, 11 days after inoculation
Protocol: (§1) • Solvent: 5% by volume of Dimethyl sulfoxide • 10% by volume of Acetone • Emulsifier: 1 μl of Tween® 80 per mg of active ingredient
(§2) The active ingredients are made soluble and homogenized in a mixture of Dimethyl sulfoxide/Acetone//Tween® 80 and then diluted in water to the desired concentration.
(§3) The young plants of wheat are treated by spraying the active ingredient prepared as described above. Control plants are treated only with an aqueous solution of Acetone/Dimethyl sulfoxide/Tween® 80.
After 24 hours, the plants are contaminated by spraying the leaves with an aqueous suspension of Puccinia recondita spores. The contaminated wheat plants are incubated for 24 hours at 20° C. and at 100% relative humidity and then for 10 days at 20° C. and at 70-80% relative humidity.
The test is evaluated 11 days after the inoculation. 0% means an efficacy which corresponds to that of the control plants while an efficacy of 100% means that no disease is observed.

Pyrenophora teres = assay: In vivo preventive test on Pyrenophora teres (net blotch on barley); settings: 500 ppm of active ingredient, 14 days after inoculation
Protocol: as §1, §2
The young plants of barley are treated by spraying the active ingredient prepared as described above. Control plants are treated only with an aqueous solution of Acetone/Dimethyl sulfoxide/Tween® 80.
After 24 hours, the plants are contaminated by spraying the leaves with an aqueous suspension of Pyrenophora teres spores. The contaminated barley plants are incubated for 48 hours at 20° C. and at 100% relative humidity and then for 12 days at 20° C. and at 70-80% relative humidity.
The test is evaluated 14 days after the inoculation. 0% means an efficacy which corresponds to that of the control plants while an efficacy of 100% means that no disease is observed.

Septoria tritici = assay: In vivo preventive test on Septoria tritici (leaf spot on wheat); settings: 500 ppm of active ingredient, 24 days after inoculation
Protocol: as §1, §2, §3
After 24 hours, the plants are contaminated by spraying the leaves with an aqueous suspension of Septoria tritici spores. The contaminated wheat plants are incubated for 72 hours at 18° C. and at 100% relative humidity and then for 21 days at 20° C. and at 90% relative humidity.
The test is evaluated 24 days after the inoculation. 0% means an efficacy which corresponds to that of the control plants while an efficacy of 100% means that no disease is observed.

[4] = acidic range, 0.1% formic acid in water and acetonitrile as eluent, read-out: LogP [a]
[5] = buffer pH 7/acetonitrile, read-out: T1/2 (pH 7) (converted)
[6] = buffer pH 9/acetonitrile, read-out: T1/2 (pH 9) (converted)
[7] = neutral range, 0.001 molar ammonium acetate solution in water and acetonitrile as eluent, read-out: LogP [b]

chromatographic logP [1, 4] | half-life at 58.8 µg/mL [2, 5] [h] | half-life at 58.8 µg/mL [2, 6] [h] | half-life [3] [h] | SMILES | other results
3.68 |  |  |  | Cc1cc(Oc2ccccc2Br)c(C(F)(F)F)cc1N [VIII-05, 4-(2-bromophenoxy)-2-methyl-5-(trifluoromethyl) aniline] | 
3.37 |  |  |  | Cc1cc(Oc2ccccc2Cl)c(Cl)cc1N [VIII-03, 5-chloro-4-(2-chlorophenoxy)-2-methylaniline] | 

More lines, now with the values behind:

SMILES | chromatographic logP [1, 4] | half-life at 58.8 µg/mL [2, 5] [h] | half-life at 58.8 µg/mL [2, 6] [h] | half-life [3] [h] | other results
CCN(C)C=Nc1cc(C(F)(F)F)c(Oc2ccccc2Br)cc1C [Example I-05, N′-[4-(2-bromophenoxy)-2-methyl-5-(trifluoromethyl)phenyl]-N-ethyl-N-methylimidoformamide] | 1.9 | 80 | 66 | > 200 | 
CCN(C)/C=N/c1cc(Cl)c(Oc2ccccc2F)cc1C [Example I-01, N′-[5-chloro-4-(2-fluorophenoxy)-2-methylphenyl]-N-ethyl-N-methylimidoformamide] | 1.64 | 67 | 60 | 32 | chromatographic logP [1, 7]: 4.56; Necrosis in % (soy bean plants): 50%; efficacy (Phakopsora pachyrhizi; 100 ppm of active ingredient): at least 70%
Cc1cc(Oc2ccccc2Br)c(C(F)(F)F)cc1[N+](=O)[O-] [VI-05, 1-(2-bromophenoxy)-5-methyl-4-nitro-2-(trifluoromethyl)benzene] | 4.64 |  |  |  | 
CCN(C)C=Nc1cc(Cl)c(Oc2ccccc2Cl)cc1C [Example I-03, N′-[5-chloro-4-(2-chlorophenoxy)-2-methylphenyl]-N-ethyl-N-methylimidoformamide] | 1.55 | 63 | 53 | 59 | 
CCN(C)/C=N/c1cc(C)c(Oc2ccccc2)cc1C [Compound no. 1 known from WO2008/110313, reference compound] |  | 24 | 16 | 10 | Necrosis in % (soy bean plants): 90%
CCN(C)C=Nc1cc(C(F)(F)F)c(Oc2ccccc2F)cc1C [Example I-04, N-ethyl-N′-[4-(2-fluorophenoxy)-2-methyl-5-(trifluoromethyl)phenyl]-N-methylimidoformamide] | 1.72 | 83 | 74 | > 200 | 
CCN(C)C=Nc1cc(Cl)c(Oc2ccccc2Br)cc1C [Example I-02, N′-[4-(2-bromophenoxy)-5-chloro-2-methylphenyl]-N-ethyl-N-methylimidoformamide] | 1.86 | 70 | 64 | > 200 | chromatographic logP [1, 7]: 5.13; efficacy (Phakopsora pachyrhizi; 10 ppm of active ingredient): at least 70%; efficacy (Puccinia recondita): at least 70%; efficacy (Pyrenophora teres): at least 70%; efficacy (Septoria tritici): at least 70%
CCN(C)/C=N/c1cc(C)c(Oc2ccccc2F)cc1C [reference compound] |  | 25 | 17 |  | Necrosis in % (soy bean plants): 90%
CCN(C)C=Nc1cc(Cl)c(Oc2ccccc2I)cc1C [Example I-06, N′-[5-chloro-4-(2-iodophenoxy)-2-methylphenyl]-N-ethyl-N-methylimidoformamide] | 1.81 | 61 | 55 | 34 | 
Cc1cc(Oc2ccccc2Cl)c(Cl)cc1[N+](=O)[O-] [VI-03, 1-chloro-2-(2-chlorophenoxy)-4-methyl-5-nitrobenzene] | 4.51 |  |  |  | 
